Literature values as cited in patent US10925995B2, “Absorber and absorbent article using the same” (LIVEDO CORPORATION, priority 2012, dated 2021).

Settings: in water at 25 degrees centigrade; for acid dissociation constant pKa: no stage stated

| Structure (SMILES) | acid dissociation constant pKa | also measured |
| --- | --- | --- |
| O=C(O)c1cccc(C(=O)O)n1 [2,6-pyridinedicarboxylic acid] | – | acid dissociation constant pKa, third stage (third stage): 4.68 |
| NCCCC(=O)O [4-aminobutyric acid] | 4.03 | – |
| O=C(O)[C@H](O)[C@@H](O)C(=O)O [(R,R)-tartaric acid] | – | acid dissociation constant pKa, second stage: 4.44 |
| O=C1O[C@H]([C@@H](O)CO)C(O)=C1O [L-ascorbic acid] | 4.03 | – |
| O=C(O)CCCCC(=O)O [adipic acid] | 4.26 | – |
| O=C(O)/C=C\c1ccccc1 [cinnamic acid (cis)] | 3.88 | – |
| COC(=O)CC(O)(CC(=O)O)C(=O)O (stereo not shown) [citric acid monomethyl ester] | 4.35 | – |
| O=C(O)CC(O)(CC(=O)O)C(=O)O [citric acid] | – | acid dissociation constant pKa, second stage: 4.35 |
| C/C=C/C(=O)O [crotonic acid] | 4.69 | – |
| O=C(O)C(O)C(O)C(=O)O (stereo not drawn) [d-tartaric acid] | – | acid dissociation constant pKa, second stage: 3.95 |
| O=C(O)/C=C/C(=O)O [fumaric acid] | – | acid dissociation constant pKa, second stage: 4.10 |
| O=C(O)CCCC(=O)O [glutaric acid] | 4.13 | – |
| CCCCCCC(=O)O [heptanoic acid] | 4.66 | – |
| O=C(O)c1ccncc1 [isonicotinic acid] | – | acid dissociation constant pKa, second stage: 4.87 |
| Nc1cccc(C(=O)O)c1 [m-aminobenzoic acid] | 3.12 | – |
| O=C(O)c1cccc(Br)c1 [m-bromobenzoic acid] | 3.81 | – |
| Nc1ccccc1C(=O)O [o-aminobenzoic acid] | – | acid dissociation constant pKa, second stage: 4.95 |
| COc1ccccc1C(=O)O [o-anisic acid] | 4.09 | – |
| O=C(O)c1ccccc1C(=O)O [o-benzenedicarboxylic acid] | – | acid dissociation constant pKa, second stage: 4.93 |
| Nc1ccc(C(=O)O)cc1 [p-aminobenzoic acid] | – | acid dissociation constant pKa, second stage: 4.85 |
| O=C(O)c1ccc(I)cc1 [p-iodobenzoic acid] | 4.00 | – |
| O=C(O)Cc1ccccc1 [phenylacetic acid] | 4.10 | – |
| O=C(O)CCCCCC(=O)O [pimelic acid] | 4.31 | – |
| O=C(O)c1ccc2ccccc2n1 [quinaldic acid] | – | acid dissociation constant pKa, second stage: 4.75 |

More lines, main results first:

| acid dissociation constant pKa | Structure (SMILES) | also measured |
| --- | --- | --- |
| 3.92 | O=C(O)CCCl [3-chloropropionic acid] | – |
| 4.70 | O=C(O)C1CCCCC1 [cyclohexane carboxylic acid] | – |
| 4.63 | CCCCCC(=O)O [hexanoic acid] | – |
| 4.44 | CC(=O)CCC(=O)O [levulinic acid] | – |
| 3.74 | Nc1cccc(S(=O)(=O)O)c1 [m-aniline sulfonic acid] | – |
| 3.85 | O=C(O)c1cccc(I)c1 [m-iodobenzoic acid] | – |
| 3.45 | O=C(O)c1cccc([N+](=O)[O-])c1 [m-nitrobenzoic acid] | – |
| 3.19 | O=C(O)C(O)c1ccccc1 (stereo not shown) [mandelic acid] | – |
| 3.43 | O=C(O)CS [mercaptoacetic acid] | – |
| 3.26 | COC(=O)c1ccncc1 [methyl isonicotinate] | – |
| 3.23 | Nc1ccc(S(=O)(=O)O)cc1 [p-aniline sulfonic acid] | – |
| 4.00 | O=C(O)c1ccc(Br)cc1 [p-bromobenzoic acid] | – |
| 3.55 | N#Cc1ccc(C(=O)O)cc1 [p-cyanobenzoic acid] | – |
| 3.44 | O=C(O)c1ccc([N+](=O)[O-])cc1 [p-nitrobenzoic acid] | – |
| 4.64 | CCCCC(=O)O [valeric acid] | – |
| 4.12 | C=CCC(=O)O [vinyl acetic acid] | – |
